“And” between values parts separate entries of the source, which are not always exact repeats. Identical values can stand only once.
Key:
Format in all cases: in vivo
parasitic plant = experiment: Parasitic plant controlling activity (general statement); details: general statement in the description
Orobanche minor [1] = experiment: Test Example 3: foliage application treatment, parasitism of Orobanche minor on red clover; details: for Average parasitism frequency per root: foliage application at 10, 20 and 30 days after sowing, untreated plot 2.55; for S4 bud formation per root: untreated plot 0.52
From the text: (§1) The red clover seeds were sowed in a pot packed with soil (1/10000 ares) and Orobanche minor seeds were sowed around the red clover seeds, followed by cultivation in a greenhouse. After 10, 20 and 30 days of the sowing, sufficient amount of agent liquid diluted to a predetermined concentration with water was applied to the foliage using an atomizer, from single- to double-leaf stage of the red clover.

Orobanche minor [2] = experiment: Test Example 5: soil irrigation treatment, parasitism of Orobanche minor on red clover; details: for Average parasitism frequency per root: soil irrigation 20 ml/pot at 10, 20 and 30 days after sowing, untreated plot 2.08; for S4 bud formation per root / parasitism frequency / S4 bud formation: soil irrigation; for S4 bud formation per root: untreated plot 0.45; for parasitism frequency: 2000 and 200 ppm; for S4 bud formation: all treatment plots
Experimental: (§2) The red clover seeds were sowed in a pot packed with soil (1/10000 ares) and Orobanche minor seeds were sowed around the red clover seeds, followed by cultivation in a greenhouse. After 10, 20 and 30 days of the sowing, agent liquid prepared into a predetermined concentration was irrigation-treated at a ratio of 20 ml/pot.

Orobanche minor [3] = experiment: Test Example 6: foliage application treatment, parasitism of Orobanche minor on red clover; details: for Average parasitism frequency per root: foliage application at 10, 20 and 30 days after sowing, untreated plot 2.08; for S4 bud formation per root / parasitism frequency decreasing tendency / S4 bud formation / parasitism frequency: foliage application; for S4 bud formation per root: untreated plot 0.45; for parasitism frequency decreasing tendency: 200 ppm or less; for S4 bud formation: 2000 and 200 ppm
From the text: as §1

Orobanche minor [4] = experiment: Test Example 4: seed soaking treatment, parasitism of Orobanche minor on red clover; details: for S4 bud formation per root / Average parasitism frequency per root: seed soaking 24 h; for S4 bud formation per root: untreated plot 0.45; for Average parasitism frequency per root: untreated plot 2.08; for S4 bud formation / total parasitism frequency of Orobanche minor: seed soaking, all treatment plots (200 and 20 ppm)
Experimental: (§3) Red clover seeds were soaked for 24 hours in agent liquid which had been prepared into a predetermined concentration. The red clover seeds were sowed in a pot packed with soil (1/10000 ares) and Orobanche minor seeds were sowed around the red clover seeds, followed by cultivation in a greenhouse. Growth of the red clover and the parasitism frequency and growth of Orobanche minor were observed by visual observation.

red clover [5] = experiment: Test Example 5: phytotoxicity of soil irrigation treatment on red clover; details: symptom growth inhibition
Experimental: as §2

Orobanche minor [6] = experiment: Test Example 1: seed soaking treatment, parasitism of Orobanche minor on red clover; details: for Average parasitism frequency per root / S4 bud formation per root: seed soaking 24 h; for Average parasitism frequency per root: red clover host, untreated plot 2.55; for S4 bud formation per root: untreated plot 0.52
Experimental: as §3, with “observation. The growth of Orobanche minor was evaluated based on the following four steps. [table]” for “observation.”

Orobanche minor [7] = experiment: Test Example 2: soil irrigation treatment, parasitism of Orobanche minor on red clover; details: for Average parasitism frequency per root: soil irrigation 20 ml/pot at 10, 20 and 30 days after sowing, untreated plot 2.55; for S4 bud formation per root: untreated plot 0.52
Experimental: as §2, with “sowing, an” for “sowing,”

crop plants = experiment: Phytotoxicity for crop plants (general statement); details: general statement in the description
red clover [8] = experiment: Test Example 3: effect of foliage application on the host red clover
From the text: as §1

Cc1ccc(NC(=O)c2snnc2C)cc1Cl [TDN, tiadinil]
parasitic plant controlling activity (parasitic plant): high
parasitism, dose relation (Orobanche minor [1]; foliage application): dose-related lowering
Average parasitism frequency per root (Orobanche minor [1]; 20 ppm): 1.49 per root
Average parasitism frequency per root (Orobanche minor [1]; 200 ppm): 1.02 per root
Average parasitism frequency per root (Orobanche minor [1]; 2000 ppm): 0.24 per root
S4 bud formation per root (Orobanche minor [1]; foliage application, 20 ppm): 0.15 per root
S4 bud formation per root (Orobanche minor [1]; foliage application, 200 ppm): 0.06 per root
effect on parasitism (Orobanche minor [1]; foliage application, 2000 ppm): high effect
S4 bud formation per root (Orobanche minor [1]; foliage application, 2000 ppm): 0.03 per root
Average parasitism frequency per root (Orobanche minor [2]; 20 ppm): 2.22 per root
Average parasitism frequency per root (Orobanche minor [2]; 200 ppm): 1.55 per root
Average parasitism frequency per root (Orobanche minor [2]; 2000 ppm): 0.22 per root
S4 bud formation per root (Orobanche minor [2]; 20 ppm): 0.13 per root
S4 bud formation per root (Orobanche minor [2]; 200 ppm): 0.11 per root
parasitism frequency (Orobanche minor [2]): reducing tendency
S4 bud formation per root (Orobanche minor [2]; 2000 ppm): 0.07 per root
S4 bud formation (Orobanche minor [2]): reduced
Average parasitism frequency per root (Orobanche minor [3]; 20 ppm): 2.25 per root
Average parasitism frequency per root (Orobanche minor [3]; 200 ppm): 1.92 per root
Average parasitism frequency per root (Orobanche minor [3]; 2000 ppm): 0.34 per root
S4 bud formation per root (Orobanche minor [3]; 20 ppm): 0.49 per root
parasitism frequency decreasing tendency (Orobanche minor [3]): unclear
S4 bud formation per root (Orobanche minor [3]; 200 ppm): 0.35 per root
S4 bud formation (Orobanche minor [3]): decreasing tendency
parasitism frequency (Orobanche minor [3]; 2000 ppm): decreasing tendency
S4 bud formation per root (Orobanche minor [3]; 2000 ppm): 0.15 per root
S4 bud formation per root (Orobanche minor [4]; 20 ppm): 0.10 per root
Average parasitism frequency per root (Orobanche minor [4]; 20 ppm): 1.12 per root
S4 bud formation per root (Orobanche minor [4]; 200 ppm): 0.12 per root
Average parasitism frequency per root (Orobanche minor [4]; 200 ppm): 0.05 per root
S4 bud formation (Orobanche minor [4]): decreasing tendency
total parasitism frequency of Orobanche minor (Orobanche minor [4]): decreasing tendency
phytotoxicity (red clover [5]; 200 ppm): weak
phytotoxicity (red clover [5]; 2000 ppm): strong
Average parasitism frequency per root (Orobanche minor [6]; 20 ppm): 1.07 per root
S4 bud formation per root (Orobanche minor [6]; 20 ppm): 0.08 per root
Average parasitism frequency per root (Orobanche minor [6]; 200 ppm): 2.57 per root
S4 bud formation per root (Orobanche minor [6]; 200 ppm): 0.21 per root
Average parasitism frequency per root (Orobanche minor [6]; 2000 ppm): 2.01 per root
S4 bud formation per root (Orobanche minor [6]; 2000 ppm): 0.15 per root
number of total parasitized cases of Orobanche minor (Orobanche minor [6]; seed soaking, 20 ppm): reducing tendency
effective concentration (Orobanche minor [7]; soil irrigation): ≥ 200 ppm
parasitism, dose relation (Orobanche minor [7]; soil irrigation): dose-related lowering
Average parasitism frequency per root (Orobanche minor [7]; 2 ppm): 2.36 per root
Average parasitism frequency per root (Orobanche minor [7]; 20 ppm): 1.71 per root
Average parasitism frequency per root (Orobanche minor [7]; 200 ppm): 0.53 per root
Average parasitism frequency per root (Orobanche minor [7]; 2000 ppm): 0.03 per root
S4 bud formation per root (Orobanche minor [7]; soil irrigation, 2 ppm): 0.17 per root
S4 bud formation per root (Orobanche minor [7]; soil irrigation, 20 ppm): 0.10 per root
S4 bud formation per root (Orobanche minor [7]; soil irrigation, 200 ppm): 0.16 per root
Parasitism (Orobanche minor [7]; soil irrigation, 2000 ppm): hardly found
S4 bud formation per root (Orobanche minor [7]; soil irrigation, 2000 ppm): 0.00 per root
phytotoxicity (crop plants): low

O=C(O)c1ccnc(Cl)c1 [INA, 2-chloroisonicotinic acid]
Average parasitism frequency per root (Orobanche minor [1]; 2 ppm): 0.99 per root
Average parasitism frequency per root (Orobanche minor [1]; 20 ppm): 0.94 per root
S4 bud formation per root (Orobanche minor [1]; foliage application, 2 ppm): 0.05 per root
S4 bud formation per root (Orobanche minor [1]; foliage application, 20 ppm): 0.03 per root
parasitism frequency (Orobanche minor [1]; foliage application, concentration not given): lowered
growth of the host (red clover [8]; 200 ppm treatment plot): inhibited
reduction of the S4 (bud formation) (Orobanche minor [6]; seed soaking): large
Average parasitism frequency per root (Orobanche minor [6]; 20 ppm): 2.28 per root
S4 bud formation per root (Orobanche minor [6]; 20 ppm): 0.22 per root
Average parasitism frequency per root (Orobanche minor [6]; 200 ppm): 1.03 per root
S4 bud formation per root (Orobanche minor [6]; 200 ppm): 0.02 per root
number of total parasitized cases of Orobanche minor (Orobanche minor [6]; seed soaking, 200 ppm): reducing tendency
Average parasitism frequency per root (Orobanche minor [7]; 2 ppm): 1.49 per root
Average parasitism frequency per root (Orobanche minor [7]; 20 ppm): 1.03 per root
S4 bud formation per root (Orobanche minor [7]; soil irrigation, 2 ppm): 0.07 per root
S4 bud formation per root (Orobanche minor [7]; soil irrigation, 20 ppm): 0.08 per root
parasitism frequency (Orobanche minor [7]; soil irrigation, 200 ppm): slightly lowered

O=C(O)c1ccccc1O [SA, salicylic acid]
parasitic plant controlling activity (parasitic plant): not so high
Average parasitism frequency per root (Orobanche minor [1]; 2 ppm): 1.91 per root
S4 bud formation per root (Orobanche minor [1]; foliage application, 2 ppm): 0.17 per root
S4 bud formation per root (Orobanche minor [1]; foliage application, 20 ppm): 0.38 per root
parasitism frequency (Orobanche minor [1]; foliage application, 200 ppm): large
red clover withered (fraction of plants per pot) (red clover [8]; first treatment with 200 ppm, two pots): 4/6 and 1/5
Average parasitism frequency per root (Orobanche minor [6]; 20 ppm): 2.09 per root
S4 bud formation per root (Orobanche minor [6]; 20 ppm): 0.38 per root
Average parasitism frequency per root (Orobanche minor [6]; 200 ppm): 2.17 per root
S4 bud formation per root (Orobanche minor [6]; 200 ppm): 0.44 per root
Average parasitism frequency per root (Orobanche minor [7]; 2 ppm): 1.75 per root
Average parasitism frequency per root (Orobanche minor [7]; 20 ppm): 2.47 per root
S4 bud formation per root (Orobanche minor [7]; soil irrigation, 2 ppm): 0.06 per root
S4 bud formation per root (Orobanche minor [7]; soil irrigation, 20 ppm): 0.03 per root

N#Cc1ccccc1NC(=O)c1snc(Cl)c1Cl [CICA, N-(2-cyanophenyl)-3,4-dichloroisothiazole-5-carboxamide]
Average parasitism frequency per root (Orobanche minor [2]; 20 ppm): 1.99 per root
Average parasitism frequency per root (Orobanche minor [2]; 200 ppm): 1.39 per root
Average parasitism frequency per root (Orobanche minor [2]; 2000 ppm): 0.15 per root
S4 bud formation per root (Orobanche minor [2]; 20 ppm): 0.10 per root
S4 bud formation per root (Orobanche minor [2]; 200 ppm): 0.09 per root
parasitism frequency (Orobanche minor [2]): reducing tendency
S4 bud formation per root (Orobanche minor [2]; 2000 ppm): 0.04 per root
S4 bud formation (Orobanche minor [2]): reduced
Average parasitism frequency per root (Orobanche minor [3]; 20 ppm): 3.01 per root
Average parasitism frequency per root (Orobanche minor [3]; 200 ppm): 2.05 per root
Average parasitism frequency per root (Orobanche minor [3]; 2000 ppm): 0.44 per root
S4 bud formation per root (Orobanche minor [3]; 20 ppm): 0.60 per root
parasitism frequency decreasing tendency (Orobanche minor [3]): unclear
S4 bud formation per root (Orobanche minor [3]; 200 ppm): 0.25 per root
S4 bud formation (Orobanche minor [3]): decreasing tendency
parasitism frequency (Orobanche minor [3]; 2000 ppm): decreasing tendency
S4 bud formation per root (Orobanche minor [3]; 2000 ppm): 0.03 per root
S4 bud formation per root (Orobanche minor [4]; 20 ppm): 0.11 per root
Average parasitism frequency per root (Orobanche minor [4]; 20 ppm): 1.36 per root
S4 bud formation per root (Orobanche minor [4]; 200 ppm): 0.09 per root
Average parasitism frequency per root (Orobanche minor [4]; 200 ppm): 1.15 per root
S4 bud formation (Orobanche minor [4]): decreasing tendency
total parasitism frequency of Orobanche minor (Orobanche minor [4]): decreasing tendency
phytotoxicity (red clover [5]; 2000 ppm): weak

C=CCOC1=NS(=O)(=O)c2ccccc21 [PBZ, probenazole]
Average parasitism frequency per root (Orobanche minor [1]; 20 ppm): 2.24 per root
Average parasitism frequency per root (Orobanche minor [1]; 200 ppm): 1.75 per root
S4 bud formation per root (Orobanche minor [1]; foliage application, 20 ppm): 0.16 per root
S4 bud formation per root (Orobanche minor [1]; foliage application, 200 ppm): 0.18 per root
Average parasitism frequency per root (Orobanche minor [6]; 20 ppm): 1.50 per root
S4 bud formation per root (Orobanche minor [6]; 20 ppm): 0.28 per root
Average parasitism frequency per root (Orobanche minor [6]; 200 ppm): 1.59 per root
S4 bud formation per root (Orobanche minor [6]; 200 ppm): 0.29 per root
Average parasitism frequency per root (Orobanche minor [7]; 2 ppm): 2.47 per root
Average parasitism frequency per root (Orobanche minor [7]; 20 ppm): 3.17 per root
Average parasitism frequency per root (Orobanche minor [7]; 200 ppm): 1.52 per root
S4 bud formation per root (Orobanche minor [7]; soil irrigation, 2 ppm): 0.13 per root
S4 bud formation per root (Orobanche minor [7]; soil irrigation, 20 ppm): 0.08 per root
S4 bud formation per root (Orobanche minor [7]; soil irrigation, 200 ppm): 0.08 per root
